Results: PMC7939570, “Discovery of potent histone deacetylase inhibitors with modified phenanthridine caps” (Journal of Enzyme Inhibition and Medicinal Chemistry, 2021)

Experiments:
[1] = tested on: xenograft nude mice model; set-up: method as in PMID 31058081; conditions: in vivo; cited from earlier work
U266 cells = assay: MTT antiproliferative assay, U266 cells; conditions: Homo sapiens, U-266, 48 h, read-out: U266 antiproliferative IC50
U937 cells = assay: MTT antiproliferative assay, U937 cells; conditions: Homo sapiens; for IC50: U-937, 48 h, read-out: U937 antiproliferative IC50; for inhibition at 1 µM: U-937, read-out: U937 percentage inhibitory rate, 1 µM, U937 cells, MTT, mean of three experiments
K562 cells = assay: MTT antiproliferative assay, K562 cells; conditions: Homo sapiens, K562, 48 h, read-out: K562 antiproliferative IC50
[2] = tested on: Hela nucleus extract containing a mixture of HDAC isoforms; assay: HDAC enzyme inhibitory assay with Hela nucleus extract; format: biochemical; conditions: 1 µM, mean of three experiments
Procedure: The HDAC enzyme inhibitory activities of synthesised compounds were investigated by utilising Hela nucleus extract containing a mixture of HDAC isoforms. Percentage inhibitory rate was used to determine the activity of tested compounds (Tables 1 and 2). The Fa series compounds were firstly synthesised for the activity screening. […] To investigate whether aromatic linker could improve the inhibitory activities, structural modifications were performed on current molecules.

MCF-7 cells [3] = assay: MTT antiproliferative assay, MCF-7 cells; conditions: Homo sapiens, MCF7, 48 h, read-out: MCF-7 antiproliferative IC50
HEPG2 cells = assay: MTT antiproliferative assay, HEPG2 cells; conditions: Homo sapiens, HepG2, 48 h, read-out: HEPG2 antiproliferative IC50
HDAC6 = target: T1, HDAC6 (Homo sapiens, UniProt Q9UBN7); assay: HDAC isoform inhibitory assay, HDAC6
T1 sequence (Q9UBN7 1-1215): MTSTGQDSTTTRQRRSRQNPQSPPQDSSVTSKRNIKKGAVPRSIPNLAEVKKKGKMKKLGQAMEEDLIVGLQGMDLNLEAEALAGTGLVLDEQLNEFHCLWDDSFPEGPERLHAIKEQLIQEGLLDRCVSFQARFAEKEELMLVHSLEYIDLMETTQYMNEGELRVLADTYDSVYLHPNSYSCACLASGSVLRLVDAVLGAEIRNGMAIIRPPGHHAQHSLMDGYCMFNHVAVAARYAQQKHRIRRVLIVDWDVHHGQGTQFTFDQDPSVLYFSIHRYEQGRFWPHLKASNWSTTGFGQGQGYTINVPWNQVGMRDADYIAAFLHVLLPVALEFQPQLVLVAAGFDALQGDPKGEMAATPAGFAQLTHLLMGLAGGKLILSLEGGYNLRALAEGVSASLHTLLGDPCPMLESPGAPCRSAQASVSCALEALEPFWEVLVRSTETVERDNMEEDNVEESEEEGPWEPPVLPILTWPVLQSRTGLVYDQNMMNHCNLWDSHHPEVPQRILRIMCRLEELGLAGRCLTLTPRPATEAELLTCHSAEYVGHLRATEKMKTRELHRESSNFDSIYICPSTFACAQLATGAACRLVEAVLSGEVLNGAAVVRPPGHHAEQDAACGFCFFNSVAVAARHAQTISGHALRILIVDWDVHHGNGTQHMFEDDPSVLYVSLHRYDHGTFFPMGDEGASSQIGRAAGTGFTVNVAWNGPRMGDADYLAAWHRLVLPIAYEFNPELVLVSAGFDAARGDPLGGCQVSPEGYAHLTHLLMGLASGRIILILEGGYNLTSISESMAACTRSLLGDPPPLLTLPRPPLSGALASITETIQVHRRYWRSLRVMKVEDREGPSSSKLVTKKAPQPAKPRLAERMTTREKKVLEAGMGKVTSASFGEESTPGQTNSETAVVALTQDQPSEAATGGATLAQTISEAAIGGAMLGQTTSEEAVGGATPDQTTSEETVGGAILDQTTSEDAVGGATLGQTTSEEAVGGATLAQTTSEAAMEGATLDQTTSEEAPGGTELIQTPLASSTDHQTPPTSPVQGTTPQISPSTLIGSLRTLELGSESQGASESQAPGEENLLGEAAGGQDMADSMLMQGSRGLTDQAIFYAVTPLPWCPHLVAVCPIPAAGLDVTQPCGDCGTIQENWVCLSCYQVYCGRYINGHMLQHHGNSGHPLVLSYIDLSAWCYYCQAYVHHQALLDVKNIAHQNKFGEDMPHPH
Procedure: (§1) All HDAC enzymes were purchased from BPS Bioscience. In short, 60 μL of recombinant HDAC enzyme solution was mixed with various concentrations of test compound (40 μL), and then incubated at 37 °C for 30 min. The reaction was terminated by adding 100 μL of imaging agent containing trypsin and trichostatin A (TSA). After standing for 20 min, the fluorescence intensity was measured at the excitation and emission wavelengths of 360 and 460 nm with a microplate reader. The inhibition rate was calculated from the fluorescence intensity readings of the test wells relative to the control wells, and the IC50 curve and value were determined by GraphPad Prism 6.0 software.

HDAC2 = HDAC2 (Homo sapiens, UniProt Q92769); assay: HDAC isoform inhibitory assay, HDAC2
Sequence of HDAC2 (Q92769 whole entry, canonical isoform): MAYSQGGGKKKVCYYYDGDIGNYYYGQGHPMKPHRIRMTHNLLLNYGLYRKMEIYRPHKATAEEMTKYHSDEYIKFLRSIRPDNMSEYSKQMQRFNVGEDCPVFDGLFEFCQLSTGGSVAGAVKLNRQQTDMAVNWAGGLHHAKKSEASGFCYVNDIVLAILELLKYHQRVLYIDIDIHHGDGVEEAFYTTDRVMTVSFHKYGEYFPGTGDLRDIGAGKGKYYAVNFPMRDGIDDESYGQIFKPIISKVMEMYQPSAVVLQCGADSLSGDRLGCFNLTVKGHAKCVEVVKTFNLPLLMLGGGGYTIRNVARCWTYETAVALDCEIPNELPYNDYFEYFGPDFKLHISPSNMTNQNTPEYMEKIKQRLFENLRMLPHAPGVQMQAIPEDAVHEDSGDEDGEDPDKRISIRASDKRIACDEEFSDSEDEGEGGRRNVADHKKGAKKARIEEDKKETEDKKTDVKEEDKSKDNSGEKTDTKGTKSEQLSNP
Procedure: as §1

HDAC8 = target: T2, HDAC8 (Homo sapiens, UniProt Q9BY41); assay: HDAC isoform inhibitory assay, HDAC8
T2 sequence (Q9BY41 1-377): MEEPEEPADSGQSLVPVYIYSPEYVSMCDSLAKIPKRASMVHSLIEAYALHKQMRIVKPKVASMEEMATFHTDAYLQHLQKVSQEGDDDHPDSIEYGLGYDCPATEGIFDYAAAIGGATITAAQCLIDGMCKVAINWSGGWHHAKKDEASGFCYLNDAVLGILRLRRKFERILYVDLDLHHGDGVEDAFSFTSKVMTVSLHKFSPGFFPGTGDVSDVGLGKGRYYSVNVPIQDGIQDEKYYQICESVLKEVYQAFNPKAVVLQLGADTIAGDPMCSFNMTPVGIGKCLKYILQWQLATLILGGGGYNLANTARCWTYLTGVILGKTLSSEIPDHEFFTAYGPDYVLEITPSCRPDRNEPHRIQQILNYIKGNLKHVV
Procedure: as §1

HDAC1 = HDAC1 (Homo sapiens, UniProt Q13547); assay: HDAC isoform inhibitory assay, HDAC1
Sequence of HDAC1 (Q13547 whole entry, canonical isoform): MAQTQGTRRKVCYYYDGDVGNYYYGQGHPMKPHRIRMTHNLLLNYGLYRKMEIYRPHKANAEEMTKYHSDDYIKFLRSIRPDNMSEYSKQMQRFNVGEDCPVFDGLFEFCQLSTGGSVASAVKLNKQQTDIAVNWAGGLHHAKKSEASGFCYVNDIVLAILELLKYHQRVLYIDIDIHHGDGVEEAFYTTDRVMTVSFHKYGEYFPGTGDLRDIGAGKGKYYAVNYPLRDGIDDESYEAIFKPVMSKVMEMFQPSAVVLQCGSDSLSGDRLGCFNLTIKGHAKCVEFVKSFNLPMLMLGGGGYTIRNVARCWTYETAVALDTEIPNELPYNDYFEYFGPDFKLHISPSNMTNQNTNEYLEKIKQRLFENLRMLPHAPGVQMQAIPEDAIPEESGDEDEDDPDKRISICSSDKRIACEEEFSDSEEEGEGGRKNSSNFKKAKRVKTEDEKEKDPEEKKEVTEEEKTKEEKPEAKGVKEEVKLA
Procedure: as §1

MCF-7 cells [4] = assay: Cell cycle assay (PI, flow cytometry); conditions: 24 h
Procedure: After staining, the cell cycle distribution was determined by flow cytometry within 24 h.

MCF-7 cells [5] = assay: Cell apoptosis assay (Annexin V-FITC/PI, flow cytometry); conditions: 24 h, control 9.16%
Procedure: After incubating for 15 min, add 10 µL of PI to each sample and mix gently, and incubate for 5 min at 2–8 °C under dark conditions, and detect with a flow cytometer.

HDAC3 = HDAC3 (Homo sapiens, UniProt O15379); assay: HDAC isoform inhibitory assay, HDAC3
Sequence of HDAC3 (O15379 whole entry, canonical isoform): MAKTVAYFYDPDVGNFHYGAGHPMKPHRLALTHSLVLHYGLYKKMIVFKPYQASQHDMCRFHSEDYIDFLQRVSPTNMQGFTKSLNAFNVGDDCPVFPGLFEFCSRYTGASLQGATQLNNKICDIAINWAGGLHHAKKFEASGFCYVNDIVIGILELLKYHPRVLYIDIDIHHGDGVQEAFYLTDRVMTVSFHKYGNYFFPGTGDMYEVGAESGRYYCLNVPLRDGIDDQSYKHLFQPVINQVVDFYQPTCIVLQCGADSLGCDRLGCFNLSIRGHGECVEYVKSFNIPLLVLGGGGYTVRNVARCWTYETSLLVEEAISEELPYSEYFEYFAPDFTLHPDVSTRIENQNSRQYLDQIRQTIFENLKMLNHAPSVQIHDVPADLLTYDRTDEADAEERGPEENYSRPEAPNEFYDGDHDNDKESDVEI
Sequence of HDAC3 (Q9Y618 395-489 partner limits assumed): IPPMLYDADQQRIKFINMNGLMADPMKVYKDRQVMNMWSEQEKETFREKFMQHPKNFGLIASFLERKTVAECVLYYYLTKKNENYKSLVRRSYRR
Procedure: as §1

Compound | IC50 (U266 cells) [nM] | IC50 (U937 cells) [nM] | IC50 (K562 cells) [nM] | HDACs percentage inhibitory rate [2] [%] | IC50 (MCF-7 cells [3]) [nM] | IC50 (HEPG2 cells) [µM] | inhibition at 1 µM (U937 cells) [%] | other results
ClC(Cl)(Cl)c1nc2cc3c(cc2c2cc4c(cc12)OCO4)OCO3 [Compound 8a] |  |  |  |  |  |  |  | hepatotoxicity [1]: obvious hepatotoxicity
O=C(NO)c1ccc(CNC(=O)c2ccc(-c3cc4c(cc3NC(=O)c3ccccc3F)OCO4)cc2)cc1 [Fb-4, 4-({4-[6–(2-Fluoro-benzoylamino)-benzo[1,3]dioxol-5-yl]-benzoylamino}-methyl)-N-Hydroxy-benzamide] | 90 ± 10 | 340 ± 60 | 870 ± 10 | 66.54 ± 1.47 | 320 ± 40 | 17.4 ± 0.63 | 95.9 ± 1.09 | IC50 (HDAC6): 8.6 ± 1.3 nM; IC50 (HDAC2): 21.5 ± 4.5 nM; IC50 (HDAC8): 304 ± 32.6 nM; IC50 (HDAC1): 12.1 ± 2.5 nM; cell percentage at G2/M phase (MCF-7 cells [4]; 1 µM): 17.46%; cell percentage at G2/M phase (MCF-7 cells [4]; 3 µM): 24.81%; cell percentage at G2/M phase (MCF-7 cells [4]; 9 µM): 41.71%; percentage of apoptotic cells (MCF-7 cells [5]; 1 µM): 16.99%; percentage of apoptotic cells (MCF-7 cells [5]; 3 µM): 20.07%; percentage of apoptotic cells (MCF-7 cells [5]; 9 µM): 21.19%; IC50 (HDAC3): 11 ± 2.8 nM
CC(C)(C)OC(=O)Nc1cc2c(cc1-c1ccc(C(=O)NCc3ccc(C(=O)NO)cc3)cc1)OCO2 [Fb-13, 4-{[4–(6-Tert-Butoxycarbonylamino-benzo[1,3]dioxol-5-yl)-benzoylamino]-methyl}-N-Hydroxy-benzamide] |  |  |  | 48.09 ± 3.01 |  |  | 75.5 ± 2.4 | 
Nc1cc2c(cc1-c1ccc(C(=O)NCc3ccc(C(=O)NO)cc3)cc1)OCO2 [Fb-14, 4-{[4–(6-Amino-benzo[1,3]dioxol-5-yl)-benzoylamino]-methyl}-N-Hydroxy-benzamide] |  |  |  | 58.84 ± 2.40 |  |  | 75.6 ± 2.28 | 
O=C(CCCCCCC(=O)Nc1ccccc1)NO [SAHA, Vorinostat, reference compound] | 140 ± 60 |  |  |  |  |  |  | cell percentage at G2/M phase (MCF-7 cells [4]; 1 µM): 15.39%; cell percentage at G2/M phase (MCF-7 cells [4]; 3 µM): 20.75%; cell percentage at G2/M phase (MCF-7 cells [4]; 9 µM): 38.48%; percentage of apoptotic cells (MCF-7 cells [5]; 1 µM): 11.38%; percentage of apoptotic cells (MCF-7 cells [5]; 3 µM): 12.30%; percentage of apoptotic cells (MCF-7 cells [5]; 9 µM): 19.51%

The next lines start with results.

IC50 (U266 cells) [nM] | IC50 (U937 cells) [nM] | IC50 (K562 cells) [nM] | HDACs percentage inhibitory rate [2] [%] | IC50 (MCF-7 cells [3]) [nM] | IC50 (HEPG2 cells) [µM] | Compound | inhibition at 1 µM (U937 cells) [%] | other results
90 ± 10 | 920 ± 90 | 1190 ± 60 | 52.30 ± 2.26 | 940 ± 20 | 17.9 ± 1.04 | COc1ccc(C(=O)Nc2cc3c(cc2-c2ccc(C(=O)NCc4ccc(C(=O)NO)cc4)cc2)OCO3)cc1 [Fb-2, 4-({4-[6–(4-Methoxy-benzoylamino)-benzo[1,3]dioxol-5-yl]-benzoylamino}-methyl)-N-Hydroxy-benzamide] | 94.46 ± 0.41 | 
100 ± 20 | 630 ± 20 | 470 ± 30 | 53.90 ± 1.82 | 530 ± 90 | 14.9 ± 0.78 | CCc1ccc(C(=O)Nc2cc3c(cc2-c2ccc(C(=O)NCc4ccc(C(=O)NO)cc4)cc2)OCO3)cc1 [Fb-3, 4-({4-[6–(4-Ethyl-benzoylamino)-benzo[1,3]dioxol-5-yl]-benzoylamino}-methyl)-N-Hydroxy-benzamide] | 96.05 ± 0.01 | 
 |  |  | 59.61 ± 6.64 |  |  | O=C(NO)c1ccc(CNC(=O)c2ccc(-c3cc4c(cc3NC(=O)c3ccccc3Cl)OCO4)cc2)cc1 [Fb-12, 4-({4-[6–(2-Chloro-benzoylamino)-benzo[1,3]dioxol-5-yl]-benzoylamino}-methyl)-N-Hydroxy-benzamide] | 76.6 ± 6.97 | 
